Measured values published in article PMC10887214 (Biomedicines, 2024).

Key:
5-HT4aR = 5-HT4aR (Mus musculus, UniProt P97288)
TRPV1 [1] = system: TRPV1; set-up: method as in PMID 17279090; conditions: HEK cells overexpressing TRPV1; read-out: IC50 as antagonist of TRPV1; cited from earlier work
C57BL/6J mice [2] = assay: Home cage activity test; assay type: in vivo, mouse; conditions: i.p., OS 2 mg/kg
Protocol: (§1) Animal housing. Forty-eight Male C57BL/6J mice were purchased from Janvier Labs (Le Genest-Saint-Isle, France) and were time-specifically housed in a 12 h light-dark cycle (lights on at 7 am), with ad libitum water and food in conditioned rooms (22 °C, humidity ~60%).
(§2) Behavior assays. All mice were subjected to a behavioral test battery that consisted of several general performance tasks of locomotor activity, exploratory and anxiety-like behavior, and learning and memory. Mice were divided into four groups: Vehicle, OS (2 mg/kg), WIN55 (0.5 mg/kg), or OS + WIN. Each group consisted of 7–14 mice that received two i.p injections before each test, with a 10 min interval between each injection. Veh + Veh were injected with PBS. Veh + WIN were injected with PBS and WIN55. Veh + OS were injected with PBS and OS. OS + WIN were injected with OS and WIN55. PBS was used as vehicle as it was used for dilution of drugs. Tests were performed in the order described below after 10 min of the last injection, with a 24 h interval between each test.
Cage activity assessment: At P60, animals were moved to the cage activity room for one hour before injections for habituation.. The cage activity assessment consists of placing the mice in a transparent box which is placed between three infrared sensors (two on the cage’s side and one in its front) that count how many times the mice cross the infrared beams. The times of beams crossed in each 30 min were counted over a period of 24 h and used as a locomotor activity measurement. In addition, we also compared the total number of beams crossed during the day and night period. For this test, we used Veh (n = 10), OS (n = 9), WIN (n = 11), OS + WIN (n = 8).

TRPV1 [3] = target: T1, TRPV1 (Homo sapiens, UniProt Q8NER1); assay type: cell-based
T1 construct: expressed in transfected cells; host or cells: Xenopus laevis oocytes (cRNA injection)
T1 sequence (Q8NER1 whole entry): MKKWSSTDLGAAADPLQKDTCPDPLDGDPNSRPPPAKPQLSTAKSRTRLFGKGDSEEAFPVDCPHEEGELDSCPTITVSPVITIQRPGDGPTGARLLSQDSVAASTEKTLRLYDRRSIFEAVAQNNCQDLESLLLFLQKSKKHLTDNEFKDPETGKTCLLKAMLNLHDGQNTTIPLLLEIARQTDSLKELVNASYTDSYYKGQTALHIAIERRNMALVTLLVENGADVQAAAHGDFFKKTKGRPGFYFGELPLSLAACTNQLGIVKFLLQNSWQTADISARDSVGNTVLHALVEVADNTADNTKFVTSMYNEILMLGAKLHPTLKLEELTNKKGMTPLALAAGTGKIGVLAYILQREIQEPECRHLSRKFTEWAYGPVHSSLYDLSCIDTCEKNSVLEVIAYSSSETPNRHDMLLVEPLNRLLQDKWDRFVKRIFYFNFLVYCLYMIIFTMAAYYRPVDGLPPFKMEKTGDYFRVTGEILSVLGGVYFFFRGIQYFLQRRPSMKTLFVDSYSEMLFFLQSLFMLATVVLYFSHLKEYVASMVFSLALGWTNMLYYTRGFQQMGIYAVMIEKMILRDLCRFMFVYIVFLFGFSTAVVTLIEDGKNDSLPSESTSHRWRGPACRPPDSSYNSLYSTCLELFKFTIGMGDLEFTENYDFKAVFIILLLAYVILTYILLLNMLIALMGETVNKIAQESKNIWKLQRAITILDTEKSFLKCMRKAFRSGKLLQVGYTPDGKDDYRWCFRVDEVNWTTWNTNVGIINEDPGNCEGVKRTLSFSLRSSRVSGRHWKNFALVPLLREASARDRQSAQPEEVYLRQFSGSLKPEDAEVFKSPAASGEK

CB2 receptor (hCB2) = target: T2, CB2 receptor (hCB2) (Homo sapiens, UniProt P34972); assay: Two-electrode voltage-clamp, CB2-GIRK1/GIRK2-RGS4 coupling system expressed in Xenopus oocytes; assay type: cell-based
T2 construct: expressed in transfected cells; host or cells: Xenopus laevis oocytes (cRNA injection)
T2 sequence (P34972 whole entry): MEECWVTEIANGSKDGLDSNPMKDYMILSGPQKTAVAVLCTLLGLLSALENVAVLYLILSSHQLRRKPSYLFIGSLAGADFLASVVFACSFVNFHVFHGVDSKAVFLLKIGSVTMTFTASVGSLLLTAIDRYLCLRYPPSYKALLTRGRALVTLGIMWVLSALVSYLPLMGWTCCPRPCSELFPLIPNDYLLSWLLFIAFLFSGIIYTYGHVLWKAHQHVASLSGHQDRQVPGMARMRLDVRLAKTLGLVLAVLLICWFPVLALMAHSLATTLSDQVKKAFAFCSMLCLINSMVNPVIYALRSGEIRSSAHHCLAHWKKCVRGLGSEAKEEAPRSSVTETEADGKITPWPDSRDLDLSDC

C57BL/6J mice [4] = assay: Elevated Plus Maze (EPM); assay type: in vivo, mouse; conditions: i.p., OS 2 mg/kg, WIN 0.5 mg/kg
Protocol: as §1
as §2, with “Tests were performed in the order described below after 10 min of the last injection, with a 24 h interval between each test.” left out
Elevated Plus Maze (EPM): EPM was used to assess the effects of OS, WIN, and OS + WIN on anxiety-like behavior. […] Time in open and closed arms was measured over 10 min. Anxiety index (AI) was calculated using the following equation: AI = 1 − [([time the animal remained in the open arms (seconds)/test duration] + [input frequency in the open arms/total number of entries])/2]. […]

GIRK1/GIRK2 channels = target: T3, GIRK1/GIRK2 channels (Mus musculus, UniProt P48542+P63250); assay: Two-electrode voltage-clamp, GIRK1/GIRK2 channels expressed in oocytes; assay type: cell-based; conditions: 100 μM OS, HK
T3 construct: expressed in transfected cells; host or cells: Xenopus laevis oocytes (cRNA injection)
T3 sequence (P63250 1-501): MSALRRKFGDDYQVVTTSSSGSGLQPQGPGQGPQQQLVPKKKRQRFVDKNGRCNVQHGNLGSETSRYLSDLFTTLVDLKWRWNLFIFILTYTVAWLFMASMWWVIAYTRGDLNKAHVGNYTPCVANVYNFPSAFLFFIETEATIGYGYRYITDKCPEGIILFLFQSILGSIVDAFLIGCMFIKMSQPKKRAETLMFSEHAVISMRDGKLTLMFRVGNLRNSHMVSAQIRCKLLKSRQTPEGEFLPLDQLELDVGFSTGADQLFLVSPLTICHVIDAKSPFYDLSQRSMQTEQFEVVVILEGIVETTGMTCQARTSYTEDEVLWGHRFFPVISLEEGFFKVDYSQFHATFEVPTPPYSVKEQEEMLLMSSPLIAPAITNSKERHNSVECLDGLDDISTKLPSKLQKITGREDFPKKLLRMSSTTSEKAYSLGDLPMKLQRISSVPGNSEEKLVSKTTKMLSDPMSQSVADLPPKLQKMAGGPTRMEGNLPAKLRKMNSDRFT
T3 sequence (P48542 1-425): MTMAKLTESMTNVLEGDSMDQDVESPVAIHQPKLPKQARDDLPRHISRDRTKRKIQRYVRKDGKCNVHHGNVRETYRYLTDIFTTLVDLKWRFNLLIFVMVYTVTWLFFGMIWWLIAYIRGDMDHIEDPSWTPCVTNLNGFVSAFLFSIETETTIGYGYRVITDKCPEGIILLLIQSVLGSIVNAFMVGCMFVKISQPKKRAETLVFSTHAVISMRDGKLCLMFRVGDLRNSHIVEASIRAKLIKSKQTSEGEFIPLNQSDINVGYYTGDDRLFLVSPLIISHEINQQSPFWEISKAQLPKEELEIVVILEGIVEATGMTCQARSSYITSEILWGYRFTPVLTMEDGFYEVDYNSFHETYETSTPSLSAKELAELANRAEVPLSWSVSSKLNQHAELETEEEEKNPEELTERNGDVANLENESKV
Source text: In vitro transcription of cDNA clones.
Heterologous expression in Xenopus laevis oocytes.
Electrophysiological measurements.

5-HT4aR, sequence (P97288 1-387 isoform P97288-2): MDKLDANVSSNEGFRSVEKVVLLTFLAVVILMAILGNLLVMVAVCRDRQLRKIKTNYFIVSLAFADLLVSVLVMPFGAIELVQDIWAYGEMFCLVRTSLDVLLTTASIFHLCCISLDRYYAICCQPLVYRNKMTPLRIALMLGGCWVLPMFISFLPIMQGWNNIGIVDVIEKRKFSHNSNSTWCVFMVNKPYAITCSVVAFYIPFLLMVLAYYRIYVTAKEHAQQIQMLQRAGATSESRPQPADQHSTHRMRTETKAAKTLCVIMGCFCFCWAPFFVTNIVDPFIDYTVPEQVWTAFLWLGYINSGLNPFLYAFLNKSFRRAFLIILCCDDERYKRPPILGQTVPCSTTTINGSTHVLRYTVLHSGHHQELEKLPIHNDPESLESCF

## CCCCCCCC/C=C\CCCCCCCC(=O)NCCc1c[nH]c2ccc(O)cc12 [OS, oleoyl serotonin]
5-HT4aR
  Activity in selectivity screening: did not show significant activity
TRPV1 [1]
  IC50: 2.57 µM
C57BL/6J mice [2]
  Overall locomotion during the night in home cage vs control: moved more in the cage compared to the control group
C57BL/6J mice [2]; WIN 0.5 mg/kg, 21 h
  Cage activity (beam crossings) 2 h after the beginning of night phase: notably increased cage activity
TRPV1 [3]
  Activity in selectivity screening: did not show significant activity
CB2 receptor (hCB2); 100 μM OS co-applied with 0.3 μM WIN55,212-2
  Effect on WIN55,212-2-induced inward K+ currents (IK,WIN+OS): inhibited
CB2 receptor (hCB2); 100 μM OS, 20–30 s, in HK
  Effect of OS alone on IK,basal: did not change the response of IK,basal
CB2 receptor (hCB2); IC50 of blocking CB2 receptor activated by WIN55,212-2, 0.03 μM WIN + OS
  IC50: 14.8 µM
CB2 receptor (hCB2); IC50 of blocking CB2 receptor activated by WIN55,212-2, 0.1 μM WIN + OS
  IC50: 13.2 µM
CB2 receptor (hCB2); IC50 of blocking CB2 receptor activated by WIN55,212-2, 0.3 μM WIN + OS
  IC50: 12.1 µM
CB2 receptor (hCB2); IC50 of blocking CB2 receptor activated by WIN55,212-2, 1 μM WIN + OS
  IC50: 10.4 µM
CB2 receptor (hCB2); against WIN55,212-2
  Mode of antagonism: non-competitively blocked
C57BL/6J mice [4]
  Anxiety-like behavior (time in open and closed arms, anxiety index): did not exhibit significant effects
GIRK1/GIRK2 channels
  Effect on IK,basal: did not significantly change IK,basal
